Measured values: patent US20250127728A1, “Constrained Ionizable Cationic Lipids and Lipid Nanoparticles” (CAPSTAN THERAPEUTICS, INC., priority 2023, published 2025)
Where two headings read alike, the source gives them in different places.

Legend:
[1] = apparent or measured pKa of ionizable lipid in the lipid nanoparticle, TNS assay; type: physicochemical; settings: predicted from c-pKa and measured pKa of CICL-207
[2] = test system: splenic T cells; assay: in vivo transfection with mCherry mRNA by CD5-targeted tLNP, splenic T cells; settings: C57BL/6 mice; for transfection rate in spleen T cells: 10 μg mRNA tail vein, 24 hours
Method: (§1) To assess the ability of a constrained ionizable cationic lipids to facilitate in vivo transfection of T cells with mCherry mRNA (SEQ ID NO. 5), tLNP incorporating CICL-207, or for comparison, CICL-1, and conjugated to an anti-mouse CD5 antibody were prepared and administered to C57BL/6 mice. The tLNP comprised either CICL-207 or CICL-1, DSPC, cholesterol, either DMG-PEG(2000) or DSG-PEG(2000), and DSPE-PEG(2000)-maleimide in the proportions indicated in Table 7 (below) and an N/P ratio of 6. CICL-1 has the structure:
Briefly, to prepare the tLNP, N1-methylpseudouridine (m1ψ)-substituted mCherry mRNA was encapsulated in LNP using a self-assembly process in which an aqueous solution of mRNA at pH 3.5 was rapidly mixed with a solution of lipids dissolved in ethanol, then followed by stepwise phosphate and Tris buffer dilution and tangential flow filtration (TFF) purification. Then an anti-CD5 mAb was conjugated to the above LNP to generate tLNP. Purified rat anti-mouse CD5 antibody, clone 53-7.3 (BioLegend), was coupled to LNP via N-succinimidyl S-acetylthioacetate (SATA)-maleimide conjugation chemistry. Briefly, LNPs with DSPE-PEG(2000)-maleimide incorporated were formulated and stored at 4° C. on the day of conjugation. The antibody was modified with SATA (Sigma-Aldrich) to introduce sulfhydryl groups at accessible lysine residues allowing conjugation to maleimide. SATA was deprotected using 0.5 M hydroxylamine followed by removal of the unreacted components by G-25 Sephadex Quick Spin Protein columns (Roche Applied Science, Indianapolis, IN). The reactive sulfhydryl group on the antibody was then conjugated to maleimide moieties on the LNPs using thioether conjugation chemistry. Purification was performed using Sepharose CL-4B gel filtration columns (Sigma-Aldrich). tLNPs (LNPs conjugated with a targeting antibody) were frozen at −80° C.
The mice were administered tLNPs containing 10 μg of mRNA by tail vein injection and tissue was harvested 24 hours later. […] These same trends have been observed with tLNP comprising CICL-1 as the ionizable lipid (data not shown). The tLNP comprising 58% ionizable cationic lipid had similarly low transfection rates (<4%) for CD45^− liver cells (hepatocytes)(FIG. 1B). […]

[3] = apparent or measured pKa of ionizable lipid in the lipid nanoparticle, TNS assay; type: physicochemical
Method: The apparent or measured pKa of ionizable lipid in the lipid nanoparticle was determined using 6-(p-toluidino)-2-naphthalenesulfonic acid sodium salt (TNS salt, Toronto Research Chemicals, Toronto, ON, Canada). Lipid nanoparticles were diluted in 1×Dulbecco's PBS to a concentration of 1 mM total lipids. TNS salt was prepared as a 1 mg/mL stock solution in DMSO and then further diluted using distilled water to a working solution of 60 μg/mL ([…]). Diluted lipid nanoparticle samples were further diluted to 90 μM total lipids in 165 μL of buffered solution containing 10 mM HEPES, 10 mM MES, 10 mM ammonium acetate, 130 mM NaCl, and final TNS concentration of 1.33 μg/mL (4 μM) with the pH ranging from 3.5 to 12.2. Following pipette mixing and incubation at room temperature in the dark for 15 min, fluorescence intensity was measured at room temperature in a BioTek Synergy H1 plate reader using excitation and emission wavelengths of 321 and 445 nm, respectively. The fluorescence signal was blank subtracted and plotted as a function of the pH, then analyzed using a nonlinear (Boltzmann) regression analysis with the apparent pKa determined as the pH giving rise to half maximal fluorescence intensity as calculated by the Henderson-Hasselbalch equation.

[4] = test system: liver Kupffer cells (CD45+/CD11+ liver cells); assay: in vivo transfection with mCherry mRNA by CD5-targeted tLNP, liver Kupffer cells; settings: C57BL/6 mice, 10 μg mRNA tail vein, 24 hours
Method: as §1
Briefly, to prepare the tLNP, N1-methylpseudouridine (m1ψ)-substituted mCherry mRNA was encapsulated in LNP using a self-assembly process in which an aqueous solution of mRNA at pH 3.5 was rapidly mixed with a solution of lipids dissolved in ethanol, then followed by stepwise phosphate and Tris buffer dilution and tangential flow filtration (TFF) purification. Then an anti-CD5 mAb was conjugated to the above LNP to generate tLNP. […]
Further ionizable cationic lipids according to Formula M2 were incorporated into tLNP and the ability of the tLNP to transfect cells in vivo assessed essentially as described in the preceding Example. Their physicochemical properties as determined in various experiments are compiled in Table 10.

[5] = Table 11, in tLNP formulation, read-out: Measured pKa
[6] = read-out: measured pKa (in tLNP formulation)

SMILES: CCCCCCCCC(=O)OCC(COC(=O)CCCCCCCC)CC(=O)OC[C@@H]1C[C@@H](OC(=O)CC(COC(=O)CCCCCCCC)COC(=O)CCCCCCCC)CN1C(=O)OCCN1CCCCC1 [CICL-207-119]
- measured pKa in formulation (prediction) [1]: close to the desired pKa=6-7 midpoint

SMILES: CCCCCCCCC(=O)OCC(COC(=O)CCCCCCCC)CC(=O)OC[C@@H]1C[C@@H](OC(=O)CC(COC(=O)CCCCCCCC)COC(=O)CCCCCCCC)CN1C(=O)SCCN(C)C [CICL-217, 2-(2-(((2S,4R)-1-(((2-(dimethylamino)ethyl)thio)carbonyl)-4-((4-(nonanoyloxy)-3-((nonanoyloxy)methyl)butanoyl)oxy)pyrrolidin-2-yl)methoxy)-2-oxoethyl)propane-1,3-diyl dinonanoate]
- performance of tLNP: transfection rate and expression level (MESF) ([2]; in words): 3 of the 4 poorest performing tLNP
- measured pKa (in tLNP formulation) [3]: fell outside the range of 6 to 7

SMILES: CCCCCCCCC(=O)OCC(COC(=O)CCCCCCCC)CC(=O)OC[C@H]1C[C@H](OC(=O)CC(COC(=O)CCCCCCCC)COC(=O)CCCCCCCC)CN1C(=O)OCCN(C)C [CICL-225, 2-(2-(((2R,4S)-1-((2-(dimethylamino)ethoxy)carbonyl)-4-((4-(nonanoyloxy)-3-((nonanoyloxy)methyl)butanoyl)oxy)pyrrolidin-2-yl)methoxy)-2-oxoethyl)propane-1,3-diyl dinonanoate]
- effect of ionizable cationic lipid content (50%, 58%, 62%, 65%) on transfection rate ([2]; in words): greater in both types of liver cells

SMILES: CCCCCCCCC(=O)OCC(COC(=O)CCCCCCCC)CC(=O)OC[C@@H]1C[C@@H](OC(=O)CC(COC(=O)CCCCCCCC)COC(=O)CCCCCCCC)CN1C(=O)OCCCN1CCC(O)CC1 [CICL-207-122]
- measured pKa in formulation (prediction) [1]: close to the desired pKa=6-7 midpoint

SMILES: CCCCCCCCC(=O)OCC(COC(=O)CCCCCCCC)CC(=O)OC[C@@H]1C[C@@H](OC(=O)CC(COC(=O)CCCCCCCC)COC(=O)CCCCCCCC)CN1C(=O)OCCN(CCC)CCC [CICL-207-109]
- measured pKa in formulation (prediction) [1]: close to the desired pKa=6-7 midpoint

SMILES: CCCCCCCCC(=O)OCC(COC(=O)CCCCCCCC)CC(=O)OC[C@@H]1C[C@H](OC(=O)CC(COC(=O)CCCCCCCC)COC(=O)CCCCCCCC)CN1C(=O)N1CCN(C)CC1 [CICL-239, 2-(2-(((2S,4S)-1-(4-methylpiperazine-1-carbonyl)-4-((4-(nonanoyloxy)-3-((nonanoyloxy)methyl)butanoyl)oxy)pyrrolidin-2-yl)methoxy)-2-oxoethyl)propane-1,3-diyl dinonanoate]
- pKa [3, 5]: 6.25
- pKa [3, 6]: 6.25

SMILES: CCCCCCCCC(=O)OCC(COC(=O)CCCCCCCC)CC(=O)OCCN(CCOC(=O)CC(COC(=O)CCCCCCCC)COC(=O)CCCCCCCC)C(=O)OCCN(C)C [CICL-1, reference compound]
- transfection rate for liver Kupffer cells (CD45+/CD11+) [4]: ~6%

SMILES: CCCCCCCCC(=O)OCC(COC(=O)CCCCCCCC)CC(=O)O[C@H]1CN(C(=O)OCCN(C)C)C[C@H]1OC(=O)CC(COC(=O)CCCCCCCC)COC(=O)CCCCCCCC [CICL-216, (((Rel-(3S,4R)-1-((2-(dimethylamino)ethoxy)carbonyl)pyrrolidine-3,4-diyl)bis(oxy))bis(2-oxoethane-2,1-diyl))bis(propane-2,1,3-triyl) tetranonanoate]
- performance of tLNP: transfection rate and expression level (MESF) ([2]; in words): 3 of the 4 poorest performing tLNP
- measured pKa (in tLNP formulation) [3]: fell outside the range of 6 to 7

SMILES: CCCCCCCCC(=O)OCC(COC(=O)CCCCCCCC)CC(=O)O[C@@H]1C[C@H](OC(=O)CC(COC(=O)CCCCCCCC)COC(=O)CCCCCCCC)CN(C(=O)OCCN(C)C)C1 [CICL-238, (((Rel-(3R,5S)-1-((2-(dimethylamino)ethoxy)carbonyl)piperidine-3,5-diyl)bis(oxy))bis(2-oxoethane-2,1-diyl))bis(propane-2,1,3-triyl) tetranonanoate]
- performance of tLNP: transfection rate and expression level (MESF) ([2]; in words): 3 of the 4 poorest performing tLNP
- pKa [3, 6]: 7.09

SMILES: CCCCCCCCC(=O)OCC(COC(=O)CCCCCCCC)CC(=O)O[C@H]1C=C[C@H](OC(=O)CC(COC(=O)CCCCCCCC)COC(=O)CCCCCCCC)CN(C(=O)OCCN(C)C)C1 (racemic) [CICL-218, (((Rel-(3S,6S)-1-((2-(dimethylamino)ethoxy)carbonyl)-2,3,6,7-tetrahydro-1H-azepine-3,6-diyl)bis(oxy))bis(2-oxoethane-2,1-diyl))bis(propane-2,1,3-triyl) tetranonanoate]
- transfection rate in spleen T cells [2]: ca. 20%
- pKa [3, 5]: 6.07
- pKa [3, 6]: 6.11

SMILES: CCCCCCCCC(=O)OCC(COC(=O)CCCCCCCC)CC(=O)OC[C@@H]1C[C@@H](OC(=O)CC(COC(=O)CCCCCCCC)COC(=O)CCCCCCCC)CN1C(=O)OCCN(C)c1ccncc1 [CICL-207-130]
- measured pKa in formulation (prediction) [1]: close to the desired pKa=6-7 midpoint

SMILES: CCCCCCCCC(=O)OCC(COC(=O)CCCCCCCC)CC(=O)OC[C@@H]1C[C@H](OC(=O)CC(COC(=O)CCCCCCCC)COC(=O)CCCCCCCC)CN1C(=O)OCCN(C)C [CICL-224, 2-(2-(((2S,4S)-1-((2-(dimethylamino)ethoxy)carbonyl)-4-((4-(nonanoyloxy)-3-((nonanoyloxy)methyl)butanoyl)oxy)pyrrolidin-2-yl)methoxy)-2-oxoethyl)propane-1,3-diyl dinonanoate]
- transfection rate in spleen T cells [2]: below 40%
- pKa [3, 5]: 6.98
- pKa [3, 6]: ~7
